Source: US5439932A, “Substituted amine derivatives having anti-hyperlipemia activity” (Banyu Pharmaceutical Co., Ltd., priority 1990, dated 1995)
Structures can show the parent of a compound that is named as a salt.

Molecular target: T1, Human squalene epoxidase (Homo sapiens, UniProt Q14534)
T1 construct: endogenous in cells; host or cells: Hep-G2 (human hepatoma) cells, microsomes solubilized with Triton X-100
Experiment: Human squalene epoxidase inhibition action
Type: biochemical
Details: solubilized squalene epoxidase fraction from human hepatoma (Hep-G2) cells; 8 μM 3H-squalene; 37° C., 60 minutes; pH 7.5; read-out: 50% inhibitory concentration (IC50)
Method: Squalene epoxidase inhibition action (1) Preparation of squalene epoxidase Human squalene epoxidase is prepared based on the method disclosed in J. Biol. Chem. 245, 1670 (1970) and ibid. 250, 1572 (1975). Namely, human hepatoma (Hep-G2) cells are cultured at 37° C. under 5% carbon dioxide-mixed air. After completion of the culture the cells are scraped and recovered by centrifugation. The cells are suspended (1×10^8 cells/ml) in a 0.1M Tris-HCl buffer (pH 7.5), the suspension is homogenized and centrifuged at 9,750×g for 10 minutes, and the sediment is washed with a 0.1M Tris-HCl buffer (pH 7.5) and centrifuged at 105,000×g for 1 hour. […] After this solubilization treatment, the solution is diluted with 1 mM EDTA and 1 mM dithiothreitol so that the Triton X-100 concentration becomes 0.125%, and then centrifuged at 105,000×g for 1 hour. The resulting supernatant is used in the later test as a squalene epoxidase fraction. (2) Method for measurement of squalene epoxidase activity Measurement of human squalene epoxidase activity is carried out based on the method disclosed in J. Biol. Chem. 245, 1670 (1970). Namely, […] of a dimethylsulfoxide solution of a test drug is added to a solution consisting of 0.2 ml of the squalene epoxidase fraction prepared in (1) [Protein amount 0.4 mg, 0.1% Triton X-100, […] buffer (pH 7.5)], 100 μM FAD, 1 mM NADPH, 1 mM EDTA and 8 μM ^3 H-squalene-Tween 80 suspension to make the total volume 0.3 ml, and the mixture is subjected to shaking reaction at 37° C. for 60 minutes. 0.3 ml of a 10% potassium hydroxide-methanol solution is added to stop the reaction, and the mixture is heated at 75° C. for 1 hour. Then, after extraction of the nonsaponified substances, the extract is concentrated to dryness in a stream of nitrogen. […] The position of the formed ^3 H-squalene-2,3-epoxide on TLC is ascertained using as a marker ergosterol acetate and the ^3 H-squalene-2,3-epoxidepart of TLC is cut out. The TLC piece is immersed in a toluene series scintillator and measurement is carried out using a liquid scintillation counter. By this, 50% inhibitory concentrations (IC50 values) of compounds of the invention on squalene epoxidase are determined, and the results are shown in the following table.

T1 sequence (Q14534 whole entry): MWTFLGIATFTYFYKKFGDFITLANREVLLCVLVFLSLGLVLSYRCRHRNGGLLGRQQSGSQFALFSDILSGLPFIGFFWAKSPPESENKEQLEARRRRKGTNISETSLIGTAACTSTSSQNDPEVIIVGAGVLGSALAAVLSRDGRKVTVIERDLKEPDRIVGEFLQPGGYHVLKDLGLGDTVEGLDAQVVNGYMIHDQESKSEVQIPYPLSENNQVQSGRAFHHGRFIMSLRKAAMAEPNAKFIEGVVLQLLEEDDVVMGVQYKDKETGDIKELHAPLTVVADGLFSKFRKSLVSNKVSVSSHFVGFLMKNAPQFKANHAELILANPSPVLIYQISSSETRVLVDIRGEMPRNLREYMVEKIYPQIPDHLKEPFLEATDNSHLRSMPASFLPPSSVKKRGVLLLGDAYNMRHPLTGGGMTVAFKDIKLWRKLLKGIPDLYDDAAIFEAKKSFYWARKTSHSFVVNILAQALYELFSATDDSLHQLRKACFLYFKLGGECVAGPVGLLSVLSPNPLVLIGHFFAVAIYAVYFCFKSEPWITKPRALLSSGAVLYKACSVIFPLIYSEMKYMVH

| SMILES | IC50 [nM] |
| --- | --- |
| CCN(C/C=C/C#CC(C)(C)OC)Cc1cccc(COC/C=C/c2ccsc2)c1 [Example 7, (E,E)-N-ethyl-N-7(6-methoxy-6-methyl-2-hepten-4-ynyl)-3-3-(3-thienyl)-2-propenyloxymethyl]benzylamine hydrochloride] | 0.3 |
| CCN(C/C=C/C#CC(C)(C)OC)Cc1ccc(COC/C=C/c2ccsc2)o1 [Example 30, (E,E)-N-ethyl-N-(6-methoxy-6-methyl-2-hepten-4-ynyl)-5-[3-(3-thienyl)-2-propenyloxymethyl]-2-furylmethylamine hydrochloride] | 0.8 |
| CCN(C/C=C/C#CC(C)(C)CC)CCOCCOc1cccc(-c2ccsc2)c1 [Example 35, (E)-N-ethyl-N-(6,6-dimethyl-2-octen-4-ynyl)-2-[2-[3-(3-thienyl)phenoxy]ethoxy]ethylamine hydrochloride] | 0.4 |
| CN(C/C=C/C#CC(C)(C)C)Cc1ccc(COC/C=C/c2ccsc2)o1 [Example 38, (E,E)-N-methyl-N-(6,6-dimethyl-2-hepten-4-ynyl)-5-[3-(3-thienyl)-2-propenyloxymethyl]-2-furylmethylamine] | 0.2 |
| CCN(CC#C/C=C/C(C)(C)C)Cc1ccc(COC/C=C/c2ccsc2)o1 [Example 46, (E,E)-N-ethyl-N-(6,6-dimethyl-4-hepten-2-ynyl)-5-[3-(3-thienyl)-2-propenyloxymethyl]-2-furylmethylamine] | 0.4 |
| CCN(CC#CC#CC(C)(C)OC)Cc1ccc(/C=C/COCc2ccsc2)o1 [Example 48, (E)-N-ethyl-N-(6-methoxy-6-methyl-2,4-heptadiynyl)-5-[3-(3-thienylmethoxy)-1-propenyl]-2-furylmethylamine] | 0.5 |
